Several values for one entry are separate records, joined by “and”; a condition that tells them apart may be missing. Equal entries are not always repeated.
Assays:
[1] = tested on: primary human UCs; test: SR1 treatment of primary human urothelial cells (UCs) in vitro, AhR/Ki-67 co-staining and manual counting; assay type: cell-based; conditions: for peak number of nAhR+UCs: D7, means±SE
Procedure: SR1 Treatment of UCs in vitro Equivalent numbers of primary human UCs were treated once with SR1 (150 nM, 200 nM, 250 nM, or untreated) and allowed to grow in culture for 13 days. […] An assortment of organ specific stem cells initially maintain a high nucleus/cytoplasm ratio which gradually decreases as the cell differentiates.

[2] = tested on: regenerated bladder tissue; test: Regenerated bladder tissue muscle content (Trichrome) and urothelium width after cystectomy and POC scaffold augmentation; assay type: in vivo, nude rats; conditions: 10 weeks post-augmentation, means±SE
Procedure: SR1 Induces Bladder Tissue Regeneration in vivo—In the following in vivo studies, nude rats underwent an approximate 60-70% bladder cystectomy and were augmented with a POC scaffold and then: 1) instilled with saline (Saline); 2) instilled with 300 nM SR1 (SR1:1×/week for 2 weeks); or 3) seeded with human MSC/CD34+HSCs (Cell-Seeded). Animals were sacrificed 10 weeks post-augmentation. The inventors have developed, characterized, and successfully utilized CBBs (POC) in bladder regenerative settings over the last 10 years. The inventors' established human MSC/CD34+HSC seeded POC scaffold bladder augmentation model was utilized in this study to directly compare specific regenerative bladder biological metrics against SR1 treated animals to determine whether SR1 could be used in lieu of MSCs and CD34+HSCs for bladder tissue regeneration. Muscle to collagen ratios are indicative of overall bladder tissue regeneration. […] Normal bladder tissue has an approximate 1:1 to muscle to collagen. There was no statistical difference with regards to muscle regeneration between the two groups. […] This included abnormal voiding, incontinence and subsequent infection, bladder distension, ureteral or renal dysfunction, and […]. […]

[3] = tested on: regenerated bladder tissue; test: Bladder tissue vascularization and peripheral nerve regeneration in vivo (IF staining); design: species or system nude rats; conditions: 10 weeks post-augmentation
Procedure: SR1 Induces Bladder Tissue Regeneration in vivo—In the following in vivo studies, nude rats underwent an approximate 60-70% bladder cystectomy and were augmented with a POC scaffold and then: 1) instilled with saline (Saline); 2) instilled with 300 nM SR1 (SR1:1×/week for 2 weeks); or 3) seeded with human MSC/CD34+HSCs (Cell-Seeded). Animals were sacrificed 10 weeks post-augmentation. The inventors have developed, characterized, and successfully utilized CBBs (POC) in bladder regenerative settings over the last 10 years. The inventors' established human MSC/CD34+HSC seeded POC scaffold bladder augmentation model was utilized in this study to directly compare specific regenerative bladder biological metrics against SR1 treated animals to determine whether SR1 could be used in lieu of MSCs and CD34+HSCs for bladder tissue regeneration. Bladder instillation of SR1 promoted vascularization of augmented bladders along the periphery and core of grafts. […] The level of tissue vascularization may be increased by changing the concentration of SR1 instilled and/or the dosing regimen.

[4] = tested on: rat bladders; test: Rat bladder urodynamic studies (UDS); assay type: in vivo, nude rats; conditions: for bladder compliance: compliant >60%; for leak point pressure (LPP): normal rat ~40
Procedure: SR1 Induces Bladder Tissue Regeneration in vivo—In the following in vivo studies, nude rats underwent an approximate 60-70% bladder cystectomy and were augmented with a POC scaffold and then: 1) instilled with saline (Saline); 2) instilled with 300 nM SR1 (SR1:1×/week for 2 weeks); or 3) seeded with human MSC/CD34+HSCs (Cell-Seeded). Animals were sacrificed 10 weeks post-augmentation. The inventors have developed, characterized, and successfully utilized CBBs (POC) in bladder regenerative settings over the last 10 years. The inventors' established human MSC/CD34+HSC seeded POC scaffold bladder augmentation model was utilized in this study to directly compare specific regenerative bladder biological metrics against SR1 treated animals to determine whether SR1 could be used in lieu of MSCs and CD34+HSCs for bladder tissue regeneration. Rat Bladder Urodynamic Studies (UDS) Rat bladders were filled with saline until a bladder contraction occurred (pre- and 10 weeks post-augmentation). Bladder pressures rose during the filling until bladder contractions occurred at intravesical pressures of 25-40 cm H2O. Saline instilled animals led to a slight decrease in voiding pressures and decreased bladder compliance (FIG. 4A). SR1 instilled animals led to a decrease in intravesical pressures during voiding from 40 to 25 cm H2O (pre-augmentation to post-augmentation, respectively) with increased bladder compliance. […] With regards to leak point pressures (LPP); Saline, SR1 and Cell-Seeded groups (pre/post aug) were: 39.49±1.35/46.48±2.42; 39.66±0.81/37.1±1.47; 38.6±1.41/35.5±2.40 cm H2O, respectively. Compliance values for the same groups were: 68.77±2.49/39.3±8.55; 69.57±1.95/72.38±3.13; 46.23±12.9/89.59±1.32 percent, respectively. Normal LPP for rat is ˜40 cm H2O and compliant bladders are defined at >60%. Percent bladder capacity at 10 weeks was also measured (FIG. 4B).

[5] = In vitro release profile of SR1 coupled to POC scaffolds, measured by spectroscopy; assay type: physicochemical
Procedure: SR1 was coupled to POC (poly 1,8 octane diol co-citrate) scaffolds and its in vitro release profile was measured by spectroscopy, based upon the aromatic ring structures contained within SR1 (FIG. 5A). […] For pilot in vivo studies, rats underwent an ˜70% cystectomy followed by augmentation with POC or POC/SR1 (1 mM SR1). POC animals were instilled with saline once at the beginning of the study and all animals were euthanized at 4 weeks post-augmentation. […] Therefore, the inventor concludes that coupling of SR1 to a scaffold, e.g., a solid support, is an effective means of delivery of SR1 to subjects in need thereof.

release profile of SR1 from POC scaffolds ([5]; 1 or 2 mM starting concentrations, over 30 days, compared to POC scaffolds in saline): gradual release | cumulative release of SR1 from POC scaffolds, fold higher with 2 mM SR1 ([5]; 30 day time point, 2 mM versus 1 mM starting concentration): ~1.4 ×
SMILES: CC(C)n1cnc2c(NCCc3ccc(O)cc3)nc(-c3csc4ccccc34)nc21 [SR1, stemregenin 1]
peak number of nAhR+UCs ([1]; 150 nM SR1, treated once): 159.75±8.44 cells | peak number of nAhR+UCs ([1]; 200 nM SR1, treated once): 310.75±28.73 cells | peak number of nAhR+UCs ([1]; 250 nM SR1, treated once): 342.75±20.97 cells | expansion of nAhR+/Ki-67+UCs compared to untreated ([1]; D7): ~6 × | UCs with higher nucleus/cytoplasm ratios ([1]; nAhR+UCs, D7, 200 nM): modest increase | muscle content of regenerated bladder tissue ([2]; SR1 300 nM instilled 1×/week for 2 weeks): ~50% and 47.00±1.81% | urothelium width ([2]; unmanipulated rats 50-70 μm): 52.98±2.55 μm | vascularization of regenerated bladder tissue ([3]; means±SE): 3.60±0.24% | peripheral nerve regeneration (βIII tubulin IF staining) ([3]; core and throughout the graft): abundance of peripheral nerve regeneration | intravesical pressure during voiding ([4]; 10 weeks post-augmentation): 25 cm H2O | bladder compliance ([4]; 10 weeks post-augmentation): 72.38±3.13% | leak point pressure (LPP) ([4]; 10 weeks post-augmentation): 37.1±1.47 cm H2O | intravesical pressure during voiding ([4]; pre-augmentation (baseline)): 40 cm H2O | bladder compliance ([4]; pre-augmentation (baseline)): 69.57±1.95% | leak point pressure (LPP) ([4]; pre-augmentation (baseline)): 39.66±0.81 cm H2O

Reference: patent publication US20250161311A1, “SMALL MOLECULE DIRECTED URINARY BLADDER TISSUE REGENERATION” (Northwestern University, priority 2022, published 2025)
